Assay results as given in patent US20030207843A1, “Treatment of drug-resistant human immunodeficiency virus infection” (priority 1999, published 2003).
Like-named read-outs stand apart in the source and are kept apart here.

What was measured:
[1] = system: HIV-1LAI 4XAZT (D67N, K70R, T215Y, K219Q); experiment: p24 reduction assay in MT-2 cells, 4XAZT; type: cell-based
Description: (§1) Cells. MT-2 cells (AIDS Research and Reference Reagent Program, National Institute of Allergy and Infectious Diseases, National Institutes of Health) were maintained in RPMI 1640 supplemented with 10% fetal bovine serum (FBS; JRH Biosciences, Lenexa, Kans.), 10 mM HEPES buffer, 50 IU/ml penicillin and 50 μg/ml streptomycin.
(§2) Antiviral Susceptibility Assays. The antiviral activity of each compound was determined by inoculating MT-2 cells with HIV-1LAI at a multiplicity of infection (MOI) of 0.01 TCID50/cell, followed by incubation in the presence of three-fold serial drug dilutions (3 wells per dilution) (see Mellors, et. al., Antimicrob. Agents Chemother. 39:1087-1092). Five or seven days after infection, culture supernatants were harvested, lysed with 0.5% triton-X 100 and assayed for p24 antigen concentration using a commercial ELISA assay (DuPont, NEN Products, Wilmington, Del.). The antiviral activity of the compounds is expressed as the IC50, which is the concentration required to inhibit 50% of p24 antigen production. The fold-resistance of a test virus is calculated by dividing the IC50 of the test virus by the IC50 of the HIV-1LAI control virus.
(§3) Generation of Mutant Recombinant HIV-1. HIV-1 containing the desired mutations were generated by oligonucleotide directed mutagenesis (Altered Sites II, Promega) as previously described (Mellors, et. al., Molecular Pharm. 41:446-451). After mutagenesis, mutant RT was subcloned into the pxxHIV-1LAI cloning vector using the silent XmaI and XbaI restriction sites located at the 5′ and 3′ ends of RT. Clones were DNA sequenced to verify the presence of the desired mutation(s) and electroporated into MT-2 cells as described above to generate infectious mutant recombinant HIV-1.
(§4) Mutant RT was generated via oligonucleotide-directed mutagenesis and ligated into the pXXHIV-1LAI cloning vector. Cloning was facilitated by the presence of two silent restriction sites at the 5′ and 3′ ends (Xma1 and Xba1, respectively) of pXXHIV-1LAI RT. Infectious mutant recombinant HIV-1 was generated by electroporating MT-2 cells with mutated pXXHIV-1LAI clones. The presence of the desired mutations was verified by DNA sequencing.
(§5) The multi-drug resistant HIV-1 strains, 11163p1 and 11588p1, are human clinical isolates having the RT mutations indicated. HIV-1 strains treated with the lipid analogs of the present invention include wild type, e.g., xxLAI, and the like, single mutation, e.g., xxLAI MI 84V (resistant to 3TC), xxLAI L74V (resistant to ddI and ddC), xxLAI K65R (resistant to ddI, ddC, DAPD, DXG, tenofovir, and adefovir), xxLAI T215Y (resistant to AZT), and the like, double mutations, e.g., xxLAI M41 L/T215Y (resistant to AZT), xxLAI MI 84V/T215Y (resistant to 3TC and AZT), and the like, and multiple mutations, e.g., xxLAI 4XAZT ((D67N, K70R, T215Y, K219Q) resistant to AZT)), xxLAI 4XAZT/M184V ((D67N, K70R, M 184V, T215Y, K219Q) resistant to AZT and 3TC), xxLAI M5456-12 (AZT+NNRTI resistant: D67N, K70R, K103N, T215Y), xxLAI G2-3g (AZT/3TC co-resistant: M41L, D67N, M184V, H208Y, L210W, R211K, L214F, T215Y, 1293V, E297A), 11163 (multinucleoside resistant virsus: M41L, A62V, V751, F77L, K103N, F116Y, Q151M, Y181C, M184V), 11588 (multinucleoside resistant virsus: A62V, K65R, K70R, V751, F77L, F116Y, Q151M, M184V, K219Q), and the like.

[2] = system: HIV-1LAI W88G; experiment: p24 reduction assay in MT-2 cells, W88G; type: cell-based; conditions: for EC50: W88G
Description: as §1, §2, §3, §4
Invention compounds were also evaluated against a panel of HIV-1LAI derived recombinants resistant to PFA and the PFA invention compounds, as shown in Table 7.

[3] = system: HIV-1LAI K65R; experiment: p24 reduction assay in MT-2 cells, K65R; type: cell-based; conditions: for EC50: K65R; for Fold-resistance: K65R relative to wild type virus
Description: as §1, §2, §3, §4, §5

[4] = system: HIV-1LAI L74V; experiment: p24 reduction assay in MT-2 cells, L74V; type: cell-based; conditions: for EC50: L74V; for Fold-resistance: L74V relative to wild type virus
Description: as §1, §2, §3, §4, §5

[5] = system: HIV-1LAI M41L/T215Y; experiment: p24 reduction assay in MT-2 cells, M41L/T215Y; type: cell-based; conditions: for EC50: M41L/T215Y; for Fold-resistance: M41L/T215Y relative to wild type virus
Description: as §1, §2, §3, §4, §5

[6] = system: HIV-1LAI M184V/T215Y; experiment: p24 reduction assay in MT-2 cells, M184V/T215Y; type: cell-based; conditions: Table 1, MOI 0.01
Description: as §1, §2, §3
Mutant RT was generated via oligonucleotide-directed mutagenesis and ligated into the pXXHIV-1LAI cloning vector. Cloning was facilitated by the presence of two silent restriction sites at the 5′ and 3′ ends (Xma1 and Xba1, respectively) of pXXHIV-1LAI RT. […]

[7] = system: HIV-1LAI 4XAZT/K103N; experiment: p24 reduction assay in MT-2 cells, 4XAZT/K103N; type: cell-based; conditions: for Fold-resistance: 4XAZT/K103N relative to wild type virus
Description: as §1, §2, §3, §4, §5

[8] = system: K (multinucleoside resistant recombinant virus V75I, F77L, F116Y, Q151M); experiment: p24 reduction assay in MT-2 cells, virus K; type: cell-based, HIV-1; conditions: Table 4; for Fold-resistance: virus K relative to wild type virus; for EC50: virus K, mean ± SD
Description: as §1, §2
(§6) The MNR panel consisted of a virus containing the mutations V75I, F77L, F116Y and […], a virus containing the T69S[SA insert], and a clinical isolate carrying the classic MNR genotype (62V/751/77L/116Y/151M). Each of the PFA invention compounds retained potency against these viruses with fold resistance values of <2.

[9] = system: 9GC (multinucleoside resistant recombinant virus D67E, S68T, T69S[SA insert], T215Y); experiment: p24 reduction assay in MT-2 cells, virus 9GC; type: cell-based, HIV-1; conditions: Table 4; for Fold-resistance: virus 9GC relative to wild type virus; for EC50: virus 9GC, mean ± SD
Description: as §1, §2, §6

[10] = Table 1, 4xAZT, MOI 0.01, read-out: EC50
[11] = Table 5, 4XAZT relative to wild type virus
[12] = Table 5, 4XAZT, mean ± SD, read-out: EC50
[13] = Table 7, 4XAZT relative to wild type virus
[14] = Table 1, AZT/K103N, MOI 0.01, read-out: EC50
[15] = Table 5, 4XAZT/K103N, mean ± SD, read-out: EC50
[16] = Table 7, W88G relative to wild type virus
[17] = Human immunodeficiency virus 1, MT2, Table 1, MOI 0.01
[18] = Human immunodeficiency virus 1, MT2, Table 3, mean ± SD
[19] = Human immunodeficiency virus 1, MT2

SMILES	EC50 ([3]; Table 1, MOI 0.01)	Fold-resistance ([3]; Table 3)	EC50 ([3]; Table 3, mean ± SD)	EC50 ([4]; Table 1, MOI 0.01)	Fold-resistance ([4]; Table 3)	EC50 ([4]; Table 3, mean ± SD)	EC50 ([5]; Table 1, MOI 0.01)	Fold-resistance ([5]; Table 5)	EC50 ([5]; Table 5, mean ± SD)	EC50 [6]	EC50 [1, 10]	Fold-resistance [1, 11]	EC50 [1, 12]	Fold-resistance [1, 13]	EC50 ([1]; Table 7, 4XAZT, read-out: EC50)	Fold-resistance ([7]; Table 5)	EC50 [7, 15]	Fold-resistance [8]	Fold-resistance [9]	Fold-resistance [2, 16]	further results
Cc1cn([C@H]2C[C@H](N=[N+]=[N-])[C@@H](CO)O2)c(=O)[nH]c1=O [AZT, 3′-Azido-3′-deoxythymidine]	–	–	–	–	–	–	–	–	–	–	–	–	–	–	–	–	–	–	–	–	EC50 ([1]; Human immunodeficiency virus 1, MT2, Table 8, 4XAZT, read-out: AZT EC50): 0.29 ± 0.114 µM; Fold resistance ([1]; Table 8, 4XAZT relative to wild type virus): 7.3; EC50 ([2]; Human immunodeficiency virus 1, MT2, Table 8, read-out: AZT EC50): 0.019 ± 0.013 µM; Fold resistance ([2]; Table 8, W88G relative to wild type virus): 0.9
CCCCCCCCCCCCCCCCCCOC[C@@H](O)COP(=O)(O)C(=O)O [B-PFA, 1-O-octadecyl-sn-glycero-3-PFA]	17.7 µM	(8.2)	14.7 ± 6.61 µM	4.25 µM	(2.5)	4.45 ± 2.26 µM	1.25 µM	(0.5)	0.94 ± 1.08 µM	1.49 µM	1.25 µM	(0.8)	1.47 ± 0.63 µM	0.63 (0.8)	1.47 µM	(2.2)	3.87 ± 2.36 µM	(1.6)	(1.6)	(>17.2)	EC50 [7, 14]: 2.72 µM; EC50 [8]: 4.2 µM; EC50 [9]: 4.1 ± 1.2 µM; EC50 ([2]; Table 7, read-out: EC50): > 30 µM
CCCCCCCCCCCCCCCCCCOC[C@H](COP(=O)(O)C(=O)O)OCC [EB-PFA, 1-O-octadecyl-2-O-ethyl-sn-glycero-3-PFA]	3.22 µM	(4.5)	2.91 ± 1.3 µM	1.34 µM	(1.9)	1.21 ± 0.85 µM	0.41 µM	(0.5)	0.3 ± 0.35 µM	0.48 µM	0.33 µM	(0.5)	0.34 ± 0.24 µM	0.24 (0.5)	0.34 µM	(1.4)	0.88 ± 0.14 µM	–	(0)	0.64 (7.6)	EC50 [7, 14]: 0.8 µM; EC50 [8]: 0.9 ± 0.7 µM; EC50 [9]: 0.2 ± 0.3 µM; Fold resistance ([2]; Example 6, recombinant virus encoding W88G): 9.4 fold; EC50 ([2]; Table 7, read-out: EC50): 6.8 µM
CCCCCCCCCCCCCCCCCCOC[C@H](COP(=O)(O)C(=O)O)OC [MB-PFA, 1-O-octadecyl-2-O-methyl-sn-glycero-3-PFA]	1.24 µM	(3.3)	1.66 ± 0.72 µM	0.52 µM	(1.8)	0.88 ± 0.63 µM	0.13 µM	(0.4)	0.18 ± 0.11 µM	0.54 µM	0.46 µM	(1.2)	0.58 ± 0.22 µM	0.22 (1.2)	0.58 µM	(1.2)	0.6 ± 0.38 µM	(0.87)	(0)	4.42 (7.6)	EC50 [8]: 2 ± 0.6 µM; EC50 ([2]; Table 7, read-out: EC50): 5.88 µM
O=C(O)P(=O)(O)O [PFA, phosphonoformate, reference compound]	–	(3.8)	–	–	(1.9)	–	–	(0.8)	–	–	–	(0.7)	–	8.07 (0.7)	–	(1.1)	–	(0.7)	(1.1)	14.28 (11.7)	EC50 [3, 17]: 57.3 µM; EC50 [3, 18]: 67 ± 22.8 µM; EC50 [4, 17]: 37.4 µM; EC50 [4, 18]: 32.7 ± 9 µM; EC50 [5, 17]: 16.2 µM; EC50 ([5]; Human immunodeficiency virus 1, MT2, Table 5, mean ± SD): 13.9 ± 4.14 µM; EC50 ([1]; Human immunodeficiency virus 1, MT2, Table 1, 4xAZT, MOI 0.01, read-out: EC50): 8.82 µM; EC50 ([1]; Human immunodeficiency virus 1, MT2, Table 5, 4XAZT, mean ± SD, read-out: EC50): 12.7 ± 8.07 µM; EC50 ([1]; Human immunodeficiency virus 1, MT2, Table 7, 4XAZT, read-out: EC50): 12.7 µM; EC50 ([7]; Human immunodeficiency virus 1, MT2, Table 1, AZT/K103N, MOI 0.01): 18.6 µM; EC50 ([7]; Human immunodeficiency virus 1, MT2, Table 5, 4XAZT/K103N, mean ± SD, read-out: EC50): 19.2 ± 8.85 µM; EC50 [8, 19]: 21.4 ± 15.6 µM; EC50 [9, 19]: 13.2 ± 12.8 µM; EC50 ([2]; Human immunodeficiency virus 1, MT2, Table 7, read-out: EC50): 152 µM; Fold resistance ([2]; {}): 6.2 fold
